The nature of series [1]: Acute toxicity test, oral. Also noted: species or system Female ICR-mice. To be noted: mouse, in vivo, mortality observed for a week, Litchfield-Wilcoxon. As for the experimental part:
Female ICR-mice of body weight of 20 to 24 g, 5 weeks after birth were used.
Eight animal per group were kept in a transparent polycage at room temperature of 23°±1° C., and RH of 60 to 70%.
After minutely pulverizing each one of the present compounds, the pulverized compound was suspended in an aqueous 5% sodium carboxymethylcellulose solution containing 20% of Tween-80. The aqueous suspension was forcibly orally administered by a metal stomach tube, the dose rate having been adjusted by changing the concentration of the present compound in the aqueous suspension.

The subject of series [2] is peptic ulcer due to pyloric ligation. Kind of series: Effect on peptic ulcer due to pyloric ligation. The format is in vivo, male rats. The note with it: 100 mg/kg, intraperitoneal; for Ulcer coefficient: 15 hours after pyloric ligation, control 41.1; for Rate of suppression of ulcer: versus control. How it is done:
(1) Effect on peptic ulcer due to pyloric ligation
Six groups (10 animals per group) of male rats weighting 180 to 200 g were subjected to ligation of their pylori under ether-anesthesia after fasting for 48 hours according to the method of Shay et al. (refer to Gastroenterology, 5, page 43 (1945)).
Just after subjecting to ligation, each of the present compound suspended in an aqueous physiological saline solution was intraperitoneally administered to each rat, the control being poured to with an aqueous physiological saline solution. Then, after 15 hours of fasting without taking water, the rats were sacrificed with ether and their stomachs were removed to examine under a microscope for anatomy. The length and width of the thus-formed ulcer in the stomach were determined and expressed by the product (mm^2), and the total sum of the products was represented as the ulcer coefficient.

Series [3] has as its system peptic ulcer due to acetic acid. Kind of series: Effect on peptic ulcer due to acetic acid (duodenal). The class given is in vivo, male rats. The note with it: for coefficient (ulcer coefficient) / Rate of suppression of ulcer: 100 mg/kg, oral; for coefficient (ulcer coefficient): 3 times a day for 10 days from third day of operation, control 8.0; for Rate of suppression of ulcer: 3 times a day for 10 days, versus control. The text has this:
The inventors of the present invention, taking into account of these situations, added to the above-mentioned method of evaluation the effect of accelerating the cure of the peptic ulcer by orally administering the present compound and a commercialized anti-peptic ulcer medicine, respectivey to rats to which duodenal peptic ulcer due to acetic acid (refer to Okabe, 1971) considered to be most closely resembling to human peptic ulcer has been artificially formed.
(2) Effect on peptic ulcer due to acetic acid
Following the method of Okabe et al (refer to Amer. J. Dig. Dis., 16, […], 6 groups (15 animals per group) of male rats weighing 240 to 260 g were subjected to laparotomy under ether anesthesia in which a metal circular frame was placed on the serosa at a distance of 5 to 7 mm from the duodenal pylorus, 0.06 ml of glacial acetic acid was poured into the frame. After 30 seconds, the liquid containing the acetic acid was removed and then the frame was removed. The test compound suspended in an aqueous physiological saline solution was orally administered to the rat 3 times a day from the third day of the operation for consecutive 10 days. After the administration was over, the rats were sacrificed with ether, and their duodenum was removed to observe under a microscope for anatomy. The length and width of the thus-formed ulcer were measured and their product (expressed with mm^2) was recorded as the ulcer coefficient.

Series [4] concerns peptic ulcer. The note with it: cited from earlier work.

The values that follow come from patent US4434172A, “2-Substituted-phenyl-5-alkylthiazolidine-4-one” (priority 1980, dated 1984).

A value given as a limit tells only on which side of the number the result lay.

A word on the LD50: it is the dose at which mortality reaches 50%. Low values mean greater toxicity, high ones lower toxicity. For `COc1cc(C2NC(=O)C(C)S2)cc(OC)c1OC` (stereo not shown) [Compound 1, 2-(3,4,5-trimethoxyphenyl)-5-methylthiazolidine-4-one], in series [1], the LD50 at 168 h stood at 6400 mg/kg. Besides, in series [2], the Ulcer coefficient is on record as 7.2 mm^2 and the “Rate of suppression of ulcer” value came to 82.5%. Besides, in series [3], the “coefficient (ulcer coefficient)” value is given as 2.8 mm^2 and the “Rate of suppression of ulcer” value came to 77.5%.
As to `COc1ccc(C2NC(=O)C(C)S2)cc1OC` (stereo not shown) [Compound 2, 2-(3,4-dimethoxyphenyl)-5-methylthiazolidine-4-one], the median lethal dose (LD50) at 168 h in series [1] is above 8000 mg/kg. Further, in series [2], the Ulcer coefficient was 6.5 mm^2 and the “Rate of suppression of ulcer” value came to 84.2%. Besides, in series [3], the “coefficient (ulcer coefficient)” value is on record as 2.4 mm^2 and the “Rate of suppression of ulcer” value is reported as 70.0%.
In turn, `COc1ccccc1C1NC(=O)C(C)S1` (stereo not shown) [Compound 3, 2-(2-methoxyphenyl)-5-methylthiazolidine-4-one] gave a median lethal dose (LD50) at 168 h in series [1] above 8000 mg/kg. In series [2], the Ulcer coefficient was found to be 3.6 mm^2 and the “Rate of suppression of ulcer” value is recorded as 91.2%. In series [3], the “coefficient (ulcer coefficient)” value was 1.3 mm^2 and the “Rate of suppression of ulcer” value is on record as 83.8%.
The corresponding values for `COc1ccc(C2NC(=O)C(C)S2)cc1` (stereo not shown) [Compound 4, 2-(4-methoxyphenyl)-5-methylthiazolidine-4-one] are above 8000 mg/kg, 4.1 mm^2, 90.0%, 1.5 mm^2 and 81.3%.
As for `CC1(C)[C@@H](OC(=O)CCC(=O)O)CC[C@]2(C)[C@H]3C(=O)C=C4[C@@H]5C[C@@](C)(C(=O)O)CC[C@]5(C)CC[C@@]4(C)[C@]3(C)CC[C@@H]12` [carbenoxolone], in series [4] (commercialized medicine), the effect on ulcer-curing result is “excellent accelerating effect on the ulcer-curing”. In series [4] (in vivo), the side effects entry is “aldosterone-like side effects to cause hypertension and weakening of muscular function”.
Consider `CC(C)=CCCC(C)=CCCC(C)=CCCC(=O)OCC=C(C)CCC=C(C)C` [gefarnate, 3,7dimethyl-2,6-octadienyl 5,9,13trimethyl-4,8,12-tetradecatrienoate, reference compound], for which, in series [2], the Ulcer coefficient worked out at 36.1 mm^2 and the “Rate of suppression of ulcer” value is “about 12%”. Further, in series [2] (listed as Positive control), the “Rate of suppression of ulcer” value is reported as 12.2%. In series [3], the “coefficient (ulcer coefficient)” value stood at 6.4 mm^2 and the “Rate of suppression of ulcer” value was 20.0%. Moreover, in series [3] (acetic acid ulcer), the “curative effect / effectiveness (in words)” value is given as “only a slight effectiveness”.
